Test results as given in ChEMBL document CHEMBL1157244, “Triterpenoid saponins from the fruits of Caryocar glabrum” (J Nat Prod, 2006).

What was measured:
[1] = Toxicity in sheep erythrocytes assessed as hemolysis; type: cell-based, Ovis aries, Erythrocyte; conditions: for HD100: erythrocyte; for HC50: sheep erythrocytes, read-out: HD50 (the source's name)
[2] = Toxicity in sheep erythrocytes assessed as hemolysis at >500 ug/mL; type: cell-based, Ovis aries, Erythrocyte; conditions: read-out: Activity

| SMILES | HD100 [1] | HC50 [1] | hemolysis [2] |
| --- | --- | --- | --- |
| CC1(C)CC[C@]2(C(=O)O)CC[C@]3(C)C(=CC[C@@H]4[C@@]5(C)CC[C@H](O[C@@H]6O[C@H](C(=O)O)[C@@H](O)[C@H](O)[C@H]6O)[C@@](C)(CO)C5CC[C@]43C)[C@@H]2C1 (stereo not given in full) | 116 µM | 93 µM |  |
| COC(=O)[C@H]1O[C@@H](O[C@H]2[C@@H](O)C[C@]3(C)[C@H]4CC=C5[C@@H]6CC(C)(C)CC[C@]6(C(=O)O)CC[C@@]5(C)[C@]4(C)CC[C@H]3C2(C)C)[C@H](O)[C@@H](O[C@@H]2O[C@H](CO)[C@H](O)[C@H](O)[C@H]2O)[C@@H]1O | 303 µM | 157 µM |  |
| CC1(C)CC[C@]2(C(=O)O)CC[C@]3(C)C(=CC[C@@H]4[C@@]5(C)C[C@H](O)[C@H](O[C@@H]6O[C@H](C(=O)O)[C@@H](O)[C@H](O[C@@H]7O[C@H](CO)[C@H](O)[C@H](O)[C@H]7O)[C@H]6O)[C@@](C)(CO)[C@@H]5CC[C@]43C)[C@@H]2C1 | 121 µM | 66 µM |  |
| CC1(C)CC[C@]2(C(=O)O[C@@H]3O[C@H](CO)[C@@H](O)[C@H](O)[C@H]3O)CC[C@]3(C)C(=CC[C@@H]4[C@@]5(C)CC[C@H](O[C@@H]6O[C@H](C(=O)O)[C@@H](O)[C@H](O[C@@H]7O[C@H](CO)[C@H](O)[C@H](O)[C@H]7O)[C@H]6O)[C@@](C)(CO)[C@@H]5CC[C@]43C)[C@@H]2C1 | 514 µM | 309 µM |  |
| CC1(C)CC[C@]2(C(=O)O[C@@H]3O[C@H](CO)[C@@H](O)[C@H](O)[C@H]3O)CC[C@]3(C)C(=CC[C@@H]4[C@@]5(C)C[C@H](O)[C@H](O[C@@H]6O[C@H](CO)[C@@H](O)[C@H](O[C@@H]7O[C@H](CO)[C@H](O)[C@H](O)[C@H]7O)[C@H]6O)[C@@](C)(CO)[C@@H]5CC[C@]43C)[C@@H]2C1 | > 513 µM |  | 10% |
| CC1(C)CC[C@]2(C(=O)O)CC[C@]3(C)C(=CC[C@@H]4[C@@]5(C)CC[C@H](O[C@@H]6O[C@H](CO)[C@@H](O)[C@H](O[C@@H]7O[C@H](CO)[C@H](O)[C@H](O)[C@H]7O)[C@H]6O)[C@@](C)(CO)[C@@H]5CC[C@]43C)[C@@H]2C1 | 94 µM | 56 µM |  |
| CC1(C)CC[C@]2(C(=O)O)CC[C@]3(C)C(=CC[C@@H]4[C@@]5(C)C[C@H](O)[C@H](O[C@@H]6O[C@H](C(=O)O)[C@@H](O)[C@H](O[C@@H]7O[C@H](CO)[C@H](O)[C@H](O)[C@H]7O)[C@H]6O)C(C)(C)[C@@H]5CC[C@]43C)[C@@H]2C1 | 49 µM | 32 µM |  |
| CC1(C)CC[C@]2(C(=O)O)CC[C@]3(C)C(=CC[C@@H]4[C@@]5(C)C[C@H](O)[C@H](O[C@@H]6O[C@H](CO)[C@@H](O)[C@H](O[C@@H]7O[C@H](CO)[C@H](O)[C@H](O)[C@H]7O)[C@H]6O)[C@@](C)(CO)[C@@H]5CC[C@]43C)[C@@H]2C1 | 24 µM | 18 µM |  |
| CC1(C)CC[C@]2(C(=O)O)CC[C@]3(C)C(=CC[C@@H]4[C@@]5(C)CC[C@H](O[C@@H]6O[C@H](C(=O)O)[C@@H](O)[C@H](O[C@@H]7O[C@H](CO)[C@H](O)[C@H](O)[C@H]7O)[C@H]6O)C(C)(C)[C@@H]5CC[C@]43C)[C@@H]2C1 [GLYCOSIDE D] | 31 µM | 19 µM |  |
| CC1(C)CC[C@]2(C(=O)O)CC[C@]3(C)C(=CC[C@@H]4[C@@]5(C)CC[C@H](O[C@@H]6O[C@H](C(=O)O)[C@@H](O)[C@H](O[C@@H]7O[C@H](CO)[C@H](O)[C@H](O)[C@H]7O)[C@H]6O)[C@@](C)(CO)[C@@H]5CC[C@]43C)[C@@H]2C1 | 93 µM | 45 µM |  |
